Reference: US20260083865A1, “PROSTATE SPECIFIC MEMBRANE ANTIGEN (PSMA) LIGANDS AND USE THEREOF” (priority 2022, published 2026)
Numbered stars: 1 amine (or outer) side, 2 acyl side, 3 side chain; on linkers, the order of the positions; unused ones are H or OH. Bridge positions count the residues as written; N and C are the ends. Square brackets hold non-standard residues; d marks the D form. Peptide text beside a SMILES is read from it. * marks the point of attachment. TtdsdLys(DOTA)NH2 = NC(=O)[C@@H](CCCCNC(=O)CN1CCN(CC(=O)O)CCN(CC(=O)O)CCN(CC(=O)O)CC1)NC(=O)CCC(=O)NCCCOCCOCCOCCCN*; DOTA = O=C(O)CN1CCN(CC(=O)O)CCN(CC(=O)*)CCN(CC(=O)O)CC1; Ala(quinolin-3-yl) = N[C@@H](Cc1cnc2ccccc2c1)C(=O)O; Phe(4-Cl) = N[C@@H](Cc1ccc(Cl)cc1)C(=O)O; Propanoyl(3-SO2NH2) = NS(=O)(=O)CCC(=O)*; Arg(Me) = CNC(=N)NCCC[C@H](N)C(=O)O; NMeR = CN[C@@H](CCCNC(=N)N)C(=O)O; X1 = O=C(CC1CCN([*:1])CC1)[*:2]; Cit = NC(=O)NCCC[C@H](N)C(=O)O; Lys(Me) = CNCCCC[C@H](N)C(=O)O; Tle = CC(C)(C)[C@H](N)C(=O)O; Nle = CCCC[C@H](N)C(=O)O; Aib = CC(C)(N)C(=O)O; CH2 = C([*:1])[*:2]

Tests used:
[1] = target: T1, PSMA-expressing C4-2 cells (Homo sapiens, UniProt Q04609); test: FACS binding assay (competition with 50 nM PSM-0183); details: FACS binding, PSMA-expressing C4-2 cells; pIC50 category; read-out: pIC50 [C4-2] CAT (converted)
T1 construct: PSMA-expressing C4-2 cells (ATCC, Cat. No. CRL-3314) were cultured in RPMI-1640; host or cells: C4-2 cells
T1 sequence (Q04609 whole entry): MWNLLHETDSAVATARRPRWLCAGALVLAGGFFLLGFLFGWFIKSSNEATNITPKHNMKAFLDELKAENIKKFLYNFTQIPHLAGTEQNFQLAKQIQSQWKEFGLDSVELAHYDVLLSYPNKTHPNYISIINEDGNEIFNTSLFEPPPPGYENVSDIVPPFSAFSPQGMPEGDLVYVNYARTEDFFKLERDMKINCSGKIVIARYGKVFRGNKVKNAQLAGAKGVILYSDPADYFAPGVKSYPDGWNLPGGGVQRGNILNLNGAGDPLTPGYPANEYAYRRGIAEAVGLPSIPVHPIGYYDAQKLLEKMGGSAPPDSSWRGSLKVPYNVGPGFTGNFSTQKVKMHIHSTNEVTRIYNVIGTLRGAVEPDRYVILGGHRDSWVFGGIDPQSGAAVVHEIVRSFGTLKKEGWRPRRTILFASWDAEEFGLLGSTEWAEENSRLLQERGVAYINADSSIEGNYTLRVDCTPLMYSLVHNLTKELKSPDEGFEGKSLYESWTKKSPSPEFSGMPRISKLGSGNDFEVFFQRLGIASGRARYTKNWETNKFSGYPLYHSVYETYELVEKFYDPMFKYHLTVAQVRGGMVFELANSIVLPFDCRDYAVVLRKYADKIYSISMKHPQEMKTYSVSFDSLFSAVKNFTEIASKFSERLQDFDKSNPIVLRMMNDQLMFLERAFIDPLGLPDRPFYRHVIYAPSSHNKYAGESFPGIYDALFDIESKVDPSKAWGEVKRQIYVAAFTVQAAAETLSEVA
Procedure, shortened: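 Competition format: fluorescent tracer PSM-0183 (50 nM) displaced from PSMA on C4-2 cells by a test compound titration over 1 h at 4 °C. Bound tracer was quantified as flow-cytometric AF488 median fluorescence after washing. Four-parameter logistic fits of MFI data gave IC50 and pIC50.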

[2] = target: T2, Fc-fusion protein of human PSMA (hPSMA-Fc) (Homo sapiens, UniProt Q04609); test: Surface plasmon resonance assay (Biacore T200, single cycle kinetic); type: binding; details: PSMA SPR assay, hPSMA-Fc, 25° C.; pKD category; read-out: pKD CAT (converted)
T2 construct: purchased Acro Biosystems PSA-H5264
T2 sequence (Q04609 44-750 limits assumed): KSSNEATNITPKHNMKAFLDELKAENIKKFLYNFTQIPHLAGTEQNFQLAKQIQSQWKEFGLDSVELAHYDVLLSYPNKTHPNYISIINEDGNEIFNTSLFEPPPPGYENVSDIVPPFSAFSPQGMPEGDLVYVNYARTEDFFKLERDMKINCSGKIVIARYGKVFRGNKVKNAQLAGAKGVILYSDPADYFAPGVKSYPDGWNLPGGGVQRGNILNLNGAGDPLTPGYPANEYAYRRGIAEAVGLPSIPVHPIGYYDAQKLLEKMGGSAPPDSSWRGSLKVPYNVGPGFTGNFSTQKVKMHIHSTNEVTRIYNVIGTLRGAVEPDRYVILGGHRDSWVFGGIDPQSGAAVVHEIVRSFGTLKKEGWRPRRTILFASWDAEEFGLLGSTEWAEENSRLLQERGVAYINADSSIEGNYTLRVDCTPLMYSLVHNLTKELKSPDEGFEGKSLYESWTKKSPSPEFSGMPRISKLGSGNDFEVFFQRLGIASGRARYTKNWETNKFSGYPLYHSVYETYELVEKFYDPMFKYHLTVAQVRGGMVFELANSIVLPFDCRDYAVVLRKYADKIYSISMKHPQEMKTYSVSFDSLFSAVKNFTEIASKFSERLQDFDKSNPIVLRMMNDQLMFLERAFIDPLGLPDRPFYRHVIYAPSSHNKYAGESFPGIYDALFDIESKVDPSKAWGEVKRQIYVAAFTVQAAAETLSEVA
Procedure, shortened: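 KD, expressed as pKD, came from 1:1 Langmuir fits of reference- and buffer-blank-subtracted SPR data. The runs were single-cycle kinetics at 25° C in HBST/0.1% DMSO over human PSMA-Fc, captured to ~1000 RU on a peptide-coated CM5 surface and regenerated with 10 mM glycine pH 1.5.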

| Compound | IC50 [1] | Kd [2] |
| --- | --- | --- |
| CC(=O)N[C@H](C(=O)NC(C)(C)C(=O)N[C@@H](Cc1ccccc1)C(=O)N[C@H]1CSSC[C@@H](C(=O)N[C@H](C(=O)N[C@H](C(N)=O)[C@@H](C)O)C(C)(C)C)NC(=O)[C@H](CC(N)=O)NC(=O)[C@H](CCCCNC(=O)CN2CCN(CC(=O)O)CCN(CC(=O)O)CCN(CC(=O)O)CC2)NC(=O)[C@H](CCCNC(=N)N)NC(=O)[C@H](CCCCN)NC1=O)[C@@H](C)O [PSM-0326, Ac-Thr-Aib-Phe-[Cys-Lys-Arg-Lys(DOTA)-Asn-Cys]-Tle-Thr-NH2] (Ac-T[Aib]FCKRK(DOTA)NC[Tle]T-NH2; disulfide 4-9) | < 200 nM | 12.6 to 126 nM |
| CC(=O)N[C@H](C(=O)NC(C)(C)C(=O)N[C@@H](Cc1ccccc1)C(=O)N[C@@H]1CSSC[C@H](C(=O)N[C@H](C(=O)N[C@H](C(N)=O)[C@@H](C)O)C(C)(C)C)NC(=O)[C@H](CC(N)=O)NC(=O)C(C)(C)NC(=O)[C@H](CCCNC(=N)N)NC(=O)[C@H](CCCCN)NC1=O)[C@@H](C)O [PSM-0327, Ac-Thr-Aib-Phe-[cys-Lys-Arg-Aib-Asn-cys]-Tle-Thr-NH2] (Ac-T[Aib]F[dC]KR[Aib]N[dC][Tle]T-NH2; disulfide 4-9) | > 3160 nM | > 501 nM |
| C[C@@H](O)[C@H](NC(=O)[C@@H](NC(=O)[C@@H]1CSSC[C@H](NC(=O)[C@H](Cc2ccc(Cl)cc2)NC(=O)C(C)(C)NC(=O)CCS(N)(=O)=O)C(=O)N[C@@H](CCCCN)C(=O)N[C@@H](CCCNC(=N)N)C(=O)NC(C)(C)C(=O)N[C@@H](CC(N)=O)C(=O)N1)C(C)(C)C)C(=O)N[C@H](CCCCNC(=O)CN1CCN(CC(=O)O)CCN(CC(=O)O)CCN(CC(=O)O)CC1)C(N)=O [PSM-0328, SaPr-Aib-Pcf-[Cys-Lys-Arg-Aib-Asn-Cys]-Tle-Thr-lys(DOTA)-NH2] ({Propanoyl(3-SO2NH2)}-[Aib][Phe(4-Cl)]CKR[Aib]NC[Tle]T[dK](DOTA)-NH2; disulfide 3-8) | < 200 nM | < 12.6 nM |
| CC(=O)N[C@H](C(=O)NC(C)(C)C(=O)N[C@@H](Cc1ccc(Cl)cc1)C(=O)N[C@H]1CSSC[C@@H](C(=O)N[C@H](C(=O)N[C@H](C(=O)N2CCC(CC(=O)N[C@H](CCCCNC(=O)CN3CCN(CC(=O)O)CCN(CC(=O)O)CCN(CC(=O)O)CC3)C(N)=O)CC2)[C@@H](C)O)C(C)(C)C)NC(=O)[C@H](CC(N)=O)NC(=O)C(C)(C)NC(=O)[C@H](CCCNC(N)=O)NC(=O)[C@H](CCCCN)NC1=O)[C@@H](C)O [PSM-0329, Ac-Thr-Aib-Pcf-[Cys-Lys-Cit-Aib-Asn-Cys]-Tle-Thr-Cmp-lys(DOTA)-NH2] (Ac-T[Aib][Phe(4-Cl)]CK[Cit][Aib]NC[Tle]T[X1][dK](DOTA)-NH2; disulfide 4-9) | < 200 nM | 12.6 to 126 nM |
| CC(=O)N[C@H](C(=O)N[C@@H](C)C(=O)N[C@@H](Cc1ccccc1)C(=O)N[C@H]1CSSC[C@@H](C(=O)N[C@@H](CC(C)C)C(=O)N[C@H](C(=O)N[C@@H](CC(=O)O)C(=O)NCCCOCCOCCOCCCNC(=O)CCC(=O)N[C@H](CCCCNC(=O)CN2CCN(CC(=O)O)CCN(CC(=O)O)CCN(CC(=O)O)CC2)C(N)=O)[C@@H](C)O)NC(=O)[C@H](CC(N)=O)NC(=O)[C@H](C)NC(=O)[C@H](CCCNC(=N)N)NC(=O)[C@H](CCCCN)NC1=O)[C@@H](C)O [PSM-0330, Ac-Thr-Ala-Phe-[Cys-Lys-Arg-Ala-Asn-Cys]-Leu-Thr-Asp-Ttds-lys(DOTA)-NH2] (Ac-TAFCKRANCLTD-{TtdsdLys(DOTA)NH2}; disulfide 4-9) | 200 to 1260 nM | 12.6 to 126 nM |
| CC(=O)N[C@H](C(=O)NC(C)(C)C(=O)N[C@@H](Cc1ccccc1)C(=O)N[C@H]1CSSC[C@H](C(=O)N[C@H](C(=O)N[C@H](C(N)=O)[C@@H](C)O)C(C)(C)C)NC(=O)[C@H](CC(N)=O)NC(=O)C(C)(C)NC(=O)[C@H](CCCNC(=N)N)NC(=O)[C@H](CCCCN)NC1=O)[C@@H](C)O [PSM-0331, Ac-Thr-Aib-Phe-[Cys-Lys-Arg-Aib-Asn-cys]-Tle-Thr-NH2] (Ac-T[Aib]FCKR[Aib]N[dC][Tle]T-NH2; disulfide 4-9) | 200 to 1260 nM | > 501 nM |
| C[C@@H](O)[C@H](NC(=O)CC1CCN(C(=O)CN2CCN(CC(=O)O)CCN(CC(=O)O)CCN(CC(=O)O)CC2)CC1)C(=O)NC(C)(C)C(=O)N[C@@H](Cc1ccc(Cl)cc1)C(=O)N[C@H]1CSCSC[C@@H](C(=O)N[C@H](C(N)=O)C(C)(C)C)NC(=O)[C@H](CC(N)=O)NC(=O)C(C)(C)NC(=O)[C@H](CCCNC(=N)N)NC(=O)[C@H](CCCCN)NC1=O [PSM-0332, DOTA-Cmp-Thr-Aib-Pcf-[Smc-Lys-Arg-Aib-Asn-Cys]-Tle-NH2] ({DOTA}-[X1]T[Aib][Phe(4-Cl)]CKR[Aib]NC[Tle]-NH2; linker 5-10 via CH2) | < 200 nM | < 12.6 nM |
| C[C@@H](O)[C@H](NC(=O)[C@@H](NC(=O)[C@@H]1CSSC[C@H](NC(=O)[C@H](Cc2cnc3ccccc3c2)NC(=O)C(C)(C)NC(=O)[C@@H](NC(=O)CC2CCN(C(=O)CN3CCN(CC(=O)O)CCN(CC(=O)O)CCN(CC(=O)O)CC3)CC2)[C@@H](C)O)C(=O)N[C@@H](CCCCN)C(=O)N[C@@H](CCCNC(N)=O)C(=O)NC(C)(C)C(=O)N[C@@H](CC(N)=O)C(=O)N1)C(C)(C)C)C(N)=O [PSM-0333, DOTA-Cmp-Thr-Aib-2Qi-[Cys-Lys-Cit-Aib-Asn-Cys]-Tle-Thr-NH2] ({DOTA}-[X1]T[Aib][Ala(quinolin-3-yl)]CK[Cit][Aib]NC[Tle]T-NH2; disulfide 5-10) | > 3160 nM | > 501 nM |
| CC(=O)N[C@H](C(=O)NC(C)(C)C(=O)N[C@@H](Cc1ccccc1)C(=O)N[C@H]1CSSC[C@@H](C(=O)N[C@H](C(=O)N[C@H](C(=O)N[C@@H](CC(=O)O)C(N)=O)[C@@H](C)O)C(C)(C)C)NC(=O)[C@H](CC(N)=O)NC(=O)C(C)(C)NC(=O)[C@H](CCC(N)=O)NC(=O)[C@H](CCCCN)NC1=O)[C@@H](C)O [PSM-0334, Ac-Thr-Aib-Phe-[Cys-Lys-Gln-Aib-Asn-Cys]-Tle-Thr-Asp-NH2] (Ac-T[Aib]FCKQ[Aib]NC[Tle]TD-NH2; disulfide 4-9) | < 200 nM | 12.6 to 126 nM |
| CCCC[C@H](NC(=O)[C@@H]1CSSC[C@H](NC(=O)[C@H](Cc2ccccc2)NC(=O)[C@H](C)NC(=O)[C@@H](NC(C)=O)[C@@H](C)O)C(=O)N[C@@H](CCCCN)C(=O)N[C@@H](CCCNC(=N)N)C(=O)N[C@@H](C)C(=O)N[C@@H](C)C(=O)N1)C(=O)N[C@H](C(=O)N[C@@H](CC(=O)O)C(N)=O)[C@@H](C)O [PSM-0335, Ac-Thr-Ala-Phe-[Cys-Lys-Arg-Ala-Ala-Cys]-Nle-Thr-Asp-NH2] (Ac-TAFCKRAAC[Nle]TD-NH2; disulfide 4-9) | 1260 to 3160 nM | 12.6 to 126 nM |
| CC(=O)N[C@H](C(=O)NC(C)(C)C(=O)N[C@@H](Cc1ccc(Cl)cc1)C(=O)N[C@H]1CSSC[C@@H](C(=O)N[C@H](C(=O)N[C@H](C(N)=O)[C@@H](C)O)C(C)(C)C)NC(=O)[C@H](CC(N)=O)NC(=O)C(C)(C)NC(=O)[C@H](CCCNC(=N)N)NC(=O)[C@H](CCCCN)NC1=O)[C@@H](C)O [PSM-0336, Ac-Thr-Aib-Pcf-[Cys-Lys-Arg-Aib-Asn-Cys]-Tle-Thr-NH2] (Ac-T[Aib][Phe(4-Cl)]CKR[Aib]NC[Tle]T-NH2; disulfide 4-9) | < 200 nM | < 12.6 nM |
| CNCCCC[C@@H]1NC(=O)[C@@H](NC(=O)[C@H](Cc2cnc3ccccc3c2)NC(=O)C(C)(C)NC(=O)[C@@H](NC(=O)CC2CCN(C(=O)CN3CCN(CC(=O)O)CCN(CC(=O)O)CCN(CC(=O)O)CC3)CC2)[C@@H](C)O)CSSC[C@@H](C(=O)N[C@H](C(=O)N[C@H](C(N)=O)[C@@H](C)O)C(C)(C)C)NC(=O)[C@H](CC(N)=O)NC(=O)C(C)(C)NC(=O)[C@H](CCCNC(=N)NC)NC1=O [PSM-0337, DOTA-Cmp-Thr-Aib-2Qi-[Cys-Lys(Me)-Arg(Me)-Aib-Asn-Cys]-Tle-Thr-NH2] ({DOTA}-[X1]T[Aib][Ala(quinolin-3-yl)]C[Lys(Me)][Arg(Me)][Aib]NC[Tle]T-NH2; disulfide 5-10) | 1260 to 3160 nM | > 501 nM |
| CCCC[C@@H]1NC(=O)[C@H](CCCCN)NC(=O)[C@@H](NC(=O)[C@H](Cc2ccc(Cl)cc2)NC(=O)C(C)(C)NC(=O)[C@@H](NC(C)=O)[C@@H](C)O)CSSC[C@@H](C(=O)N[C@H](C(=O)N[C@H](C(N)=O)[C@@H](C)O)C(C)(C)C)NC(=O)[C@H](CC(N)=O)NC(=O)C(C)(C)NC1=O [PSM-0338, Ac-Thr-Aib-Pcf-[Cys-Lys-Nle-Aib-Asn-Cys]-Tle-Thr-NH2] (Ac-T[Aib][Phe(4-Cl)]CK[Nle][Aib]NC[Tle]T-NH2; disulfide 4-9) | < 200 nM | < 12.6 nM |
| C[C@@H](O)[C@H](NC(=O)[C@@H](NC(=O)[C@@H]1CSSC[C@H](NC(=O)[C@H](Cc2ccc(Cl)cc2)NC(=O)C(C)(C)NC(=O)[C@@H](NC(=O)CC2CCN(C(=O)CN3CCN(CC(=O)O)CCN(CC(=O)O)CCN(CC(=O)O)CC3)CC2)[C@@H](C)O)C(=O)N[C@@H](CCCCN)C(=O)N(C)[C@@H](CCCNC(=N)N)C(=O)NC(C)(C)C(=O)N[C@@H](CC(N)=O)C(=O)N1)C(C)(C)C)C(N)=O [PSM-0340, DOTA-Cmp-Thr-Aib-Pcf-[Cys-Lys-Nmr-Aib-Asn-Cys]-Tle-Thr-NH2] ({DOTA}-[X1]T[Aib][Phe(4-Cl)]CK[NMeR][Aib]NC[Tle]T-NH2; disulfide 5-10) | 200 to 1260 nM | < 12.6 nM |
